The source of these data is US4320127A, “Pyrido[3,2-e]-as-triazines” (Edyt Gyogyszervegyeszeti Gyar, priority 1979, dated 1982).

The nature of one data set: in vivo. The following applies: mouse. The method, then: The toxicity of the new compounds according to the invention was determined on mice after oral administration.
The next data set relates to acetic acid writhing. Nature of the data set: analgesic effect, acetic acid writhing test. In kind it is in vivo. The following applies: mice, oral; for ED50: Mus musculus, analgesic. On the procedure:
The analgesic effect of the new compounds was determined on mice at oral administration by the acetic acid writhing test.

The next data set concerns hexobarbital-narcosis. Kind of data set: effect on the duration of hexobarbital-narcosis (Kaergaard). The following applies: for ED50: Mus musculus, po; for Therapeutical index: hexobarbital-narcosis, mice, oral.
A further data set deals with motility of mice. Kind of data set: effect on the motility of mice in a Dews apparatus (Borsy et al.). The following applies: for ED50: Mus musculus, po; for Therapeutical index: motility, mice, oral.
Another data set concerns tetrabenazine. Kind of data set: tetrabenazine antagonism (Brodie et al.). In kind it is in vivo. The following applies: mice; for ED50: Mus musculus, oral administration; for Therapeutic index: tetrabenazine antagonism, oral.
In a further data set the test system is reserpine. Nature of the data set: reserpine antagonism (Brodie et al.). In kind it is in vivo. The following applies: mice; for ED50: Mus musculus, oral administration; for Therapeutic index: reserpine antagonism, oral.
Data set [1] has as its system carrageenin oedema of the hind paw. Kind of data set: antiphlogistic (oedema-inhibiting) effect, carrageenin paw oedema. In kind it is in vivo, rats. The following applies: for ED30: Rattus norvegicus; for Therapeutical index: carrageenin oedema. On the procedure: The antiphlogistic (oedema-inhibiting) effect was tested on rats. 0.1 ml of a 1% carrageenin solution were injected into the plantar region of one of the hind paws. The volume of the paw was measured just before and 3 hours after the introduction of oedema-provoking agent by a mercury plethysmometer.
Background: In the carrageenan paw model, swelling and tenderness develop within hours.

[2] abbreviates: dosage inhibiting the inflammation by 30%, rats, 0.1 ml of 1% carrageenin, 3 hours, read-out: ED30.

Structures can show the parent of a compound that is named as a salt. Where two headings read alike, the source gives them in different places.

Source text for hexobarbital-narcosis: The effect of the compounds exerted on the duration of hexobarbital-narcosis was orally tested on mice by the method of Kaergaard (Arch. Int. Pharmacodyn. 2 170 (1967)).
Source text for motility of mice: The effect of the compounds on the motility of mice was orally tested in a Dews apparatus, by the method of Borsy et al. (Arch. Int. Pharmacodyn. 124 1-2 (1960). The ED50 values and the therapeutical indices are listed in Table 2.

As usually defined, the LD50 is the dose expected to kill half of the subjects tested. Read a low LD50 as greater toxicity. Broadly, the ED50 is the dose that gives a 50% effect, or the effect in half of the subjects. A lower ED50 goes with an effect at a small dose. As to `CCCCCCC1=Nc2cccnc2N(C(=O)c2cccnc2)N1` [Example 11, 3-n-hexyl-1-nicotinoyl-1,2-dihydropyrido-[3,2-e]-as-triazinedihydrochloride], the 50% lethal dose (LD50) in “in vivo” (po) was 2000 mg/kg. Further, the 50% effective dose (ED50) in the data set on acetic acid writhing is ~400 mg/kg; in the data set on hexobarbital-narcosis it was 140 mg/kg; with motility of mice it was ~200 mg/kg. The results for the Therapeutical index in the data set with acetic acid writhing, with hexobarbital-narcosis and in the data set with motility of mice were 5, 14.3 and “about 10”, respectively.
In the case of `CCC(=O)N1NC(c2ccc(OC)cc2)=Nc2cccnc21` [Example 5, 3-anisyl-1-propionyl-1,2-dihydropyrido[3,2-e]-as-triazine hydrochloride], the 50% lethal dose (LD50) in the data set “in vivo” (mice, oral administration) was found to be 750 mg/kg. The ED50 was 80 mg/kg with tetrabenazine; 170 mg/kg with reserpine; 52 mg/kg with acetic acid writhing; ~170 mg/kg in the data set with hexobarbital-narcosis; ~170 mg/kg in the data set on motility of mice. The Therapeutic index was determined as 9.4 in the data set with tetrabenazine and 4.4 in the data set with reserpine. For the same compound, the Therapeutical index is 14.4 with acetic acid writhing, 10 in data set [1] (rats), 4.4 in the data set on hexobarbital-narcosis and 4.4 in the data set on motility of mice. Moreover, the ED30 in data set [1] (setting [2]) was 75 mg/kg.
Take `CCC(=O)N1NC(c2cc(OC)c(OC)c(OC)c2)=Nc2cccnc21.Cl` [Example 6, 3-(3',4',5'-trimethoxyphenyl)-1-propionyl-1,2-dihydropyrido[3,2-e]-as-triazine hydrochloride]: the LD50 in the data set “in vivo” (mice, oral administration) was 2000 mg/kg. The ED50 with acetic acid writhing is 215 mg/kg; in the data set with hexobarbital-narcosis it was ~350 mg/kg; in the data set on motility of mice, ~400 mg/kg. The Therapeutical index in the data set with acetic acid writhing was 9.3; in data set [1] (rats), 12.9; in the data set with hexobarbital-narcosis, 5.7; in the data set with motility of mice, “about 5”. Further, the ED30 in data set [1] (setting [2]) was ~155 mg/kg.
In the data set with acetic acid writhing, `CC(=O)Nc1ccc(O)cc1` [Paracetamol, reference compound] had an ED50 of 180 mg/kg.
`CCCCCCC1=Nc2cccnc2N(C(=O)CC)N1.Cl` [Example 1, 3-n-hexyl-1-propionyl-1,2-dihydropyrido[3,2-e]-as-triazine hydrochloride] displayed a median lethal dose (LD50) in the data set “in vivo” (mice, oral administration) of 1500 mg/kg. In addition, the 50% effective dose (ED50) is 300 mg/kg in the data set on tetrabenazine, 300 mg/kg with reserpine, ~400 mg/kg with hexobarbital-narcosis and ~200 mg/kg in the data set on motility of mice. Also, the Therapeutic index with tetrabenazine and with reserpine was 5 throughout. Also, the ED30 in data set [1] (setting [2]) is 200 mg/kg. The Therapeutical index is recorded as 7.5 in data set [1] (rats), “about 5” with hexobarbital-narcosis and 7.5 in the data set with motility of mice.
With `CCCC(C)(COC(N)=O)COC(N)=O` [Meprobamate, reference compound], in the data set on hexobarbital-narcosis, the 50% effect level (ED50) was put at a dose of 260 mg/kg and the Therapeutical index is reported as 4.2. In the data set with motility of mice, this compound showed a 50% effective dose (ED50) of 270 mg/kg and a Therapeutical index of 4.1.
For `CCC(=O)N1NC(CCc2ccccc2)=Nc2cccnc21` [Example 7, 3-phenetyl-1-propionyl-1,2-dihydropyrido-[3,2-e]-as-triazine], in “in vivo” (mice, oral administration), the 50% lethal dose (LD50) was found to be 2000 mg/kg. The ED50 in the data set on acetic acid writhing, in the data set on hexobarbital-narcosis and in the data set with motility of mice was > 400 mg/kg each time. Further, the values for the Therapeutical index result in the data set with acetic acid writhing, in the data set on hexobarbital-narcosis and in the data set on motility of mice were “below 5”, “below 5” and “under 5”, respectively.
In the case of `CCCCCCC1=Nc2cccnc2N(C(=O)c2ccccc2)N1.Cl` [Example 18, 3-hexyl-1-benzoyl-1,2-dihydropyrido[3,2-e]-as-triazine hydrochloride], the LD50 in “in vivo” (mice, oral administration) was found to be 380 mg/kg. In addition, the ED50 in the data set on tetrabenazine is 10 mg/kg; with reserpine it was 30 mg/kg; in the data set on acetic acid writhing it was ~38 mg/kg; with hexobarbital-narcosis it was 80 mg/kg. The figures for the Therapeutic index in the data set on tetrabenazine and in the data set with reserpine were 38 and 12.7, respectively. The Therapeutical index was determined as 10 with acetic acid writhing, 5.4 in data set [1] (rats) and 5 in the data set on hexobarbital-narcosis. The ED30 in data set [1] (setting [2]) is ~70 mg/kg.
For `CN(C)CCC=C1c2ccccc2CCc2ccccc21` [Amitriptyline, reference compound], in the data set with tetrabenazine, the median effective dose (ED50) came out at 12 mg/kg and the Therapeutic index is given as 18.75. In the data set on reserpine, the 50% effect level (ED50) was put at a dose of 65 mg/kg and the Therapeutic index was determined as 3.46.
Compound `CC(=O)Oc1ccccc1C(=O)O` [Acetylsalicylic acid, reference compound] displayed an ED30 in data set [1] (3 h) of 180 mg/kg.
Compound `CCCCC1C(=O)N2C(c3ccccc3)=Nc3cccnc3N2C1=O` (stereo not shown) [Example 13, 2-butyl-4-phenylpyrazolo[1,2-a]pyrido[3,2-e]-as-triazine-1,3-dione] showed an LD50 in “in vivo” (po) of 2000 mg/kg. The median effective dose (ED50) in the data set with acetic acid writhing was > 400 mg/kg. Also, the Therapeutical index entry (in the data set on acetic acid writhing; in data set [1] (rats)) was “below 5” in each case. Further, the ED30 in data set [1] (setting [2]) is > 400 mg/kg.
